ChEMBL document CHEMBL1201862, “PubChem BioAssay data set” (2004)
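Protocol summary: plate cells (96-well), add compound at 5 concentrations, incubate 48 h, interpolate endpoints linearly. GI50: concentration for 50% inhibition of growth.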 Activity calls are given as the source filed them. No stated cut-off is given here; in the data, active = GI50 up to about 1.1 µM and inactive = higher.

Tests used:
Test in all cases: inhibition of tumour cell growth, NCI panel, 48 h
RXF 393 = system: RXF 393
OVCAR-8 = system: OVCAR-8
IGROV-1 = system: IGROV-1
HL-60 = system: HL-60
HCT-116 = system: HCT-116
HCC 2998 = system: HCC 2998
UO-31 = system: UO-31
SNB-19 = system: SNB-19
SN12C = system: SN12C
SW-620 = system: SW-620
SK-OV-3 = system: SK-OV-3
NCI-H460 = system: NCI-H460
MCF7 = system: MCF7
SF-539 = system: SF-539
RPMI-8226 = system: RPMI-8226
HOP-92 = system: HOP-92
A498 = system: A498
K562 = system: K562
MOLT-4 = system: MOLT-4
DU-145 = system: DU-145

| SMILES | GI50 (RXF 393) | GI50 (OVCAR-8) | GI50 (IGROV-1) | GI50 (HL-60) | GI50 (HCT-116) | GI50 (HCC 2998) | GI50 (UO-31) | GI50 (SNB-19) | GI50 (SN12C) | GI50 (SW-620) | GI50 (SK-OV-3) | GI50 (NCI-H460) | GI50 (MCF7) | GI50 (SF-539) | GI50 (RPMI-8226) | GI50 (HOP-92) | GI50 (A498) | GI50 (K562) | GI50 (MOLT-4) | GI50 (DU-145) |
| --- | --- | --- | --- | --- | --- | --- | --- | --- | --- | --- | --- | --- | --- | --- | --- | --- | --- | --- | --- | --- |
| COc1cccc2c1C(=O)c1c(O)c3c(c(O)c1C2=O)C[C@@](O)(C(=O)CO)C[C@@H]3OC1CC(N)C(OC)C(C)O1 (stereo not given in full) | 0.19 µM (active) | 0.0289 µM (active) | 0.108 µM (active) | < 0.0163 µM (active) | 0.0282 µM (active) | 0.139 µM (active) | 0.437 µM (active) | 0.0452 µM (active) | 0.0378 µM (active) | 0.0249 µM (active) | 0.0767 µM (active) | < 0.01 µM (active) | < 0.01 µM (active) | 0.0421 µM (active) | 0.024 µM (active) | 0.0612 µM (active) | 0.116 µM (active) | 0.0284 µM (active) | < 0.01 µM (active) | 0.264 µM (active) |
| Cc1c(C2=C(Br)C(=O)N(C)C2=O)c(=O)n(C)c(=O)n1C | 14.3 µM (inactive) | 29.6 µM (inactive) | 18 µM (inactive) | 17.1 µM (inactive) | 20.5 µM (inactive) | 22.2 µM (inactive) | 18.5 µM (inactive) | > 100 µM (inactive) | 95.1 µM (inactive) | 31.4 µM (inactive) | > 100 µM (inactive) | 45.6 µM (inactive) | 20.2 µM (inactive) | 14.9 µM (inactive) | 15.1 µM (inactive) | 17.7 µM (inactive) | 29.4 µM (inactive) | 21.3 µM (inactive) | 15.8 µM (inactive) | 28 µM (inactive) |
| C[C@]12CC[C@H](O)CC1=CC[C@@H]1[C@@H]2CC[C@]2(C)C(=O)/C(=C/c3ccc([N+](=O)[O-])cc3)C[C@@H]12 | 8.95 µM (inactive) | 3.15 µM (inactive) | 8.73 µM (inactive) | 36.4 µM (inactive) | 13.7 µM (inactive) | 20 µM (inactive) | 11 µM (inactive) | 10.4 µM (inactive) | 11.2 µM (inactive) | 47.4 µM (inactive) | 8.93 µM (inactive) | 23.8 µM (inactive) | 32.2 µM (inactive) | 6.92 µM (inactive) | > 100 µM (inactive) | 9.16 µM (inactive) | 13.5 µM (inactive) | 59.6 µM (inactive) | > 100 µM (inactive) | 13.4 µM (inactive) |
| O=c1[nH]nc(Cc2ccc(Cl)cc2)n1/N=C\CC/C=N\n1c(Cc2ccc(Cl)cc2)n[nH]c1=O | 15.1 µM (inactive) | 14 µM (inactive) | 9.93 µM (inactive) | > 24.2 µM (inactive) | 27.2 µM (inactive) | > 100 µM (inactive) | > 100 µM (inactive) | 32.9 µM (inactive) | 59.2 µM (inactive) | > 62.2 µM (inactive) | 31.5 µM (inactive) | > 100 µM (inactive) | 21.6 µM (inactive) | 8.49 µM (inactive) | > 33.3 µM (inactive) | > 55.5 µM (inactive) | > 69.5 µM (inactive) | > 88.7 µM (inactive) | > 24.1 µM (inactive) | > 93.1 µM (inactive) |
| CC(=N\N)/C(C)=N/N=C(C)/C(C)=N/N=C(C)/C(C)=N/N=C(C)/C(C)=N/N | > 100 µM (inactive) | > 100 µM (inactive) | > 100 µM (inactive) | > 100 µM (inactive) | > 100 µM (inactive) | > 100 µM (inactive) | > 100 µM (inactive) | > 100 µM (inactive) | > 100 µM (inactive) | > 100 µM (inactive) | > 100 µM (inactive) | > 100 µM (inactive) | > 100 µM (inactive) | > 100 µM (inactive) | > 100 µM (inactive) | 0.316 µM (active) | > 100 µM (inactive) | 37.8 µM (inactive) | 20.9 µM (inactive) | > 100 µM (inactive) |
| N=C(N)N1CCC(N2CCOCC2)CC1 | > 100 µM (inactive) | > 100 µM (inactive) | > 100 µM (inactive) | > 100 µM (inactive) | > 100 µM (inactive) | > 100 µM (inactive) | > 100 µM (inactive) | > 100 µM (inactive) | > 100 µM (inactive) | > 100 µM (inactive) | > 100 µM (inactive) | > 100 µM (inactive) | > 100 µM (inactive) | > 100 µM (inactive) | > 100 µM (inactive) | > 100 µM (inactive) | > 100 µM (inactive) | > 100 µM (inactive) | > 100 µM (inactive) | > 100 µM (inactive) |
| CC#CC(O)(C(=O)OC1CC2CCC(C1)N2C)C1CCCC1 (stereo not given) | > 100 µM (inactive) | > 100 µM (inactive) | > 100 µM (inactive) | > 100 µM (inactive) | > 100 µM (inactive) | > 100 µM (inactive) | > 100 µM (inactive) | > 100 µM (inactive) | > 100 µM (inactive) | > 100 µM (inactive) | > 100 µM (inactive) | > 100 µM (inactive) | > 100 µM (inactive) | > 100 µM (inactive) | > 100 µM (inactive) | > 100 µM (inactive) | > 100 µM (inactive) | > 100 µM (inactive) | > 100 µM (inactive) | > 100 µM (inactive) |
| CC(NC(=O)/C(C#N)=C/c1ccc2[nH]ccc2c1)c1ccccc1 (stereo not given) | 19.3 µM (inactive) | 21.3 µM (inactive) | 17.2 µM (inactive) | 18.7 µM (inactive) | 14.9 µM (inactive) | 19.8 µM (inactive) | 14.7 µM (inactive) | 19.6 µM (inactive) | 18.7 µM (inactive) | 18.3 µM (inactive) | 21.9 µM (inactive) | 18.4 µM (inactive) | 20.9 µM (inactive) | 19.8 µM (inactive) | 21.6 µM (inactive) | 14.5 µM (inactive) | 16.5 µM (inactive) | 23.8 µM (inactive) | 20.8 µM (inactive) | 16.7 µM (inactive) |
| Cc1cc(S(=O)(=O)Nc2nc(N)nc(N(C)C)n2)c(SC(C(=O)O)c2ccccc2)cc1Cl (stereo not given) | > 10 µM (inactive) | > 10 µM (inactive) | > 10 µM (inactive) | > 10 µM (inactive) | > 10 µM (inactive) | > 10 µM (inactive) | > 10 µM (inactive) | > 10 µM (inactive) | > 10 µM (inactive) | > 10 µM (inactive) | > 10 µM (inactive) | > 10 µM (inactive) | > 10 µM (inactive) | > 10 µM (inactive) | > 10 µM (inactive) | > 10 µM (inactive) | > 10 µM (inactive) | > 10 µM (inactive) | > 10 µM (inactive) | > 10 µM (inactive) |
| CCOC(=O)N1CCc2cc(OC)c(OC)c3c2c1cc1cc(OC)c(OC)cc13 | 2 µM (inactive) | 4.8 µM (inactive) | 4.57 µM (inactive) | 1.32 µM (inactive) | 1.22 µM (inactive) | 2.29 µM (inactive) | 11.1 µM (inactive) | 10.9 µM (inactive) | 4.62 µM (inactive) | 1.15 µM (inactive) | 2.56 µM (inactive) | 1.09 µM (active) | 1.1 µM (active) | 1.69 µM (inactive) | 3.76 µM (inactive) | 3.8 µM (inactive) | 2.21 µM (inactive) | 2.91 µM (inactive) | 5.32 µM (inactive) | 3.59 µM (inactive) |
| CC1=NN(c2nc(N)nc(/C(C#N)=C\c3ccc(-c4ccc([N+](=O)[O-])cc4)o3)n2)C(C)(C)C1 | > 100 µM (inactive) | > 100 µM (inactive) | > 100 µM (inactive) | 17.1 µM (inactive) | > 100 µM (inactive) | > 100 µM (inactive) | > 100 µM (inactive) | > 100 µM (inactive) | > 100 µM (inactive) | > 100 µM (inactive) | > 100 µM (inactive) | > 100 µM (inactive) | > 100 µM (inactive) | > 100 µM (inactive) | > 100 µM (inactive) | > 100 µM (inactive) | > 100 µM (inactive) | > 100 µM (inactive) | > 100 µM (inactive) | > 100 µM (inactive) |
| CN(C)CCNc1ccc2nnn3c4ccc(Cl)cc4c(=O)c1c23 | 3.15 µM (inactive) | 1.7 µM (inactive) | 3.65 µM (inactive) | 4.73 µM (inactive) | 1.48 µM (inactive) | 8.67 µM (inactive) | 1.56 µM (inactive) | 4.17 µM (inactive) | 2.36 µM (inactive) | 1.03 µM (active) | 9.89 µM (inactive) | 2.48 µM (inactive) | 5.01 µM (inactive) | 4.78 µM (inactive) | 2.92 µM (inactive) | 3.69 µM (inactive) | 2.8 µM (inactive) | 2.14 µM (inactive) | 0.624 µM (active) | 5.22 µM (inactive) |
| C=C1CC(c2ccc(OCCCN3C(=O)c4ccccc4C3=O)c(OC)c2)OC1=O (stereo not given) | 1.95 µM (inactive) | 2.93 µM (inactive) | 2.56 µM (inactive) | 1.25 µM (inactive) | 1.6 µM (inactive) | 12 µM (inactive) | 3.69 µM (inactive) | 11.9 µM (inactive) | 6.82 µM (inactive) | 1.56 µM (inactive) | 15.4 µM (inactive) | 2.62 µM (inactive) | 0.218 µM (active) | 0.303 µM (active) | 0.849 µM (active) | 1.62 µM (inactive) | 1.77 µM (inactive) | 1.07 µM (active) | 0.615 µM (active) | 11.9 µM (inactive) |
| COc1ccc(Nc2nc(N)c(C(=O)c3ccc(Cl)cc3)s2)cc1 | < 0.01 µM (active) | < 0.0126 µM (active) | 0.0655 µM (active) | < 0.01 µM (active) | < 0.01 µM (active) | 0.0357 µM (active) | < 0.01 µM (active) | < 0.01 µM (active) | 0.307 µM (active) | < 0.01 µM (active) | < 0.01 µM (active) | < 0.01 µM (active) | 0.356 µM (active) | < 0.01 µM (active) | < 0.01 µM (active) | 18.2 µM (inactive) | < 0.01 µM (active) | < 0.01 µM (active) | < 0.01 µM (active) | < 0.01 µM (active) |
